Laboratory results published in ChEMBL document CHEMBL4346659, “Design, synthesis and evaluation of novel 7H-pyrrolo[2,3-d]pyrimidin-4-amine derivatives as potent, selective and reversible Bruton's tyrosine kinase (BTK) inhibitors for the treatment of rheumatoid arthritis” (Eur J Med Chem, 2019).
pIC50: −log10 of the molar value. Each block holds one compound with its values, some of them ahead of it. Activity calls are given as the source filed them. No cut-off for these calls is given here.

Assays:
[1] = biological target: T1, Tyrosine-protein kinase BTK (Homo sapiens, UniProt Q06187); test: Inhibition of BTK (unknown origin) at 1 uM in the presence of ATP by caliper mobility shift assay relative to control
Ramos = test: Antiproliferative activity against human Ramos cells; type: functional, cell-based; parameters: fold change (FC): reference not given here; settings: for pIC50: Homo sapiens, Ramos
[2] = biological target: T1, Tyrosine-protein kinase BTK; test: Inhibition of BTK (unknown origin) in the presence of ATP by caliper mobility shift assay
JeKo-1 = test: Antiproliferative activity against human JeKo1 cells; type: functional, cell-based; parameters: fold change (FC): reference not given here; settings: for pIC50: Homo sapiens, JeKo-1
Daudi = test: Antiproliferative activity against human Daudi cells; type: functional, cell-based; parameters: fold change (FC): reference not given here; settings: for pIC50: Homo sapiens, Daudi
[3] = biological target: T1, Tyrosine-protein kinase BTK; test: Inhibition of BTK (unknown origin) at 0.1 uM in the presence of ATP by caliper mobility shift assay relative to control
[4] = biological target: Tyrosine-protein kinase HCK (Homo sapiens, UniProt P08631); test: Inhibition of HCK (unknown origin)
[5] = biological target: Receptor tyrosine-protein kinase erbB-4 (Homo sapiens, UniProt Q15303); test: Inhibition of HER4 (unknown origin)
[6] = biological target: Tyrosine-protein kinase Tec (Homo sapiens, UniProt P42680); test: Inhibition of TEC (unknown origin)
[7] = biological target: Tyrosine-protein kinase Fgr (Homo sapiens, UniProt P09769); test: Inhibition of human recombinant FGR using Ulight-TK peptide as substrate measured after 60 mins in the presence of ATP by LANCE method
[8] = biological target: T1, Tyrosine-protein kinase BTK; test: Inhibition of BTK auto phosphorylation at Tyr223 residue in human Ramos cells at 100 nM measured after 1 hr by Western blot analysis; type: cell-based
Mus musculus [9] = test: Antiarthritic activity in DBA1/J mouse model of collagen-induced arthritis assessed as reduction in reduction in paw thickness at 30 mg/kg to 60 mg/kg, po qd; type: functional, organism-based
Mus musculus [10] = test: Antiarthritic activity in DBA1/J mouse model of collagen-induced arthritis assessed as reduction in joint damage at 60 mg/kg, po qd by H and E staining based assay; type: functional, organism-based
Mus musculus [11] = test: Antiarthritic activity in DBA1/J mouse model of collagen-induced arthritis assessed as reduction in clinical arthritic score at 30 mg/kg to 60 mg/kg, po qd; type: functional, organism-based
[12] = biological target: Tyrosine-protein kinase Yes (Homo sapiens, UniProt P07947); test: Inhibition of human recombinant YES using biotinyl-beta amyloid beta amyloid beta AYQAEENTYDEYEN as substrate measured after 30 mins in the presence of ATP by HTRF assay
[13] = biological target: T1, Tyrosine-protein kinase BTK; test: Inhibition of BTK auto phosphorylation at Tyr223 residue in human JeKo1 cells at 100 nM measured after 1 hr by Western blot analysis; type: cell-based
[14] = Toxicity in DBA1/J mouse model of collagen-induced arthritis assessed as effect on body weight at 30 to 60 mg/kg, po qd; type: organism-based; settings: in vivo
[15] = biological target: Epidermal growth factor receptor (Homo sapiens, UniProt P00533); test: Inhibition of human recombinant EGFR using Ulight-CAGAGAIETDKEYYTVKD measured after 15 mins in the presence of ATP by LANCE method
[16] = biological target: T1, Tyrosine-protein kinase BTK; test: Inhibition of BTK auto phosphorylation at Tyr223 residue in human Daudi cells at 100 nM measured after 1 hr by Western blot analysis; type: cell-based
Mus musculus [17] = test: Antiarthritic activity in DBA1/J mouse model of collagen-induced arthritis assessed as reduction in cartilage damage at 30 mg/kg, po qd by H and E staining based assay; type: functional, organism-based
[18] = biological target: Receptor tyrosine-protein kinase erbB-2 (Homo sapiens, UniProt P04626); test: Inhibition of human recombinant HER2 using biotinyl-beta amyloid beta amyloid beta AAEEEEYFELVAKKK measured after 10 mins in the presence of ATP by HTRF assay
[19] = biological target: Tyrosine-protein kinase TXK (Homo sapiens, UniProt P42681); test: Inhibition of human recombinant TXK using Ulight-Poly GAT[EAY(1:1:1) as substrate measured after 30 mins in the presence of ATP by LANCE method
Mus musculus [20] = test: Antiarthritic activity in collagen-induced DBA1/J mouse arthritis model assessed as reduction injoint inflammation at 30 mg/kg or 60 mg/kg, po qd cotreated with ibrutinib at 12.5 mg/kg by micro CT analysis; type: functional, organism-based
Mus musculus [21] = test: Antiarthritic activity in DBA1/J mouse model of collagen-induced arthritis assessed as reduction in bone erosion at 60 mg/kg, po qd by micro-CT analysis; type: functional, organism-based
[22] = biological target: Tyrosine-protein kinase ITK/TSK (Homo sapiens, UniProt Q08881); test: Inhibition of human recombinant ITK using Ulight-TK peptide as substrate measured after 30 mins in the presence of ATP by LANCE method
Mus musculus [23] = test: Antiarthritic activity in DBA1/J mouse model of collagen-induced arthritis assessed as reduction in cellular infiltration at 60 mg/kg, po qd by Safranin O-staining based assay; type: functional, organism-based
[24] = biological target: Tyrosine-protein kinase JAK3 (Homo sapiens, UniProt P52333); test: Inhibition of human recombinant JAK3 using Ulight-CAGAGAIETDKEYYTVKD measured after 60 mins in the presence of ATP by LANCE method
[25] = biological target: Proto-oncogene tyrosine-protein kinase Src (Homo sapiens, UniProt P12931); test: Inhibition of human recombinant SRC using Ulight-Poly GAT[EAY(1:1:1) as substrate measured after 10 mins in the presence of ATP by LANCE method
[26] = biological target: Cytoplasmic tyrosine-protein kinase BMX (Homo sapiens, UniProt P51813); test: Inhibition of BMX (unknown origin)
[27] = biological target: T1, Tyrosine-protein kinase BTK; test: Inhibition of BTK in human Daudi cells assessed as reduction in PLCgamma-2 phosphorylation at Try1217 residue at 1000 nM after1 hr by Western blot analysis; type: cell-based
Mus musculus [28] = test: Antiarthritic activity in DBA1/J mouse model of collagen-induced arthritis assessed as reduction in bone erosion at 30 mg/kg, po qd by H and E staining based assay; type: functional, organism-based
[29] = biological target: T1, Tyrosine-protein kinase BTK; test: Inhibition of BTK in human JeKo1 cells assessed as reduction in PLCgamma-2 phosphorylation at Try1217 residue at 1000 nM after1 hr by Western blot analysis; type: cell-based
[30] = biological target: Tyrosine-protein kinase Lck (Homo sapiens, UniProt P06239); test: Inhibition of human recombinant LCK using Ulight-Poly GAT[EAY(1:1:1) as substrate measured after 10 mins in the presence of ATP by LANCE method
[31] = biological target: Tyrosine-protein kinase Blk (Homo sapiens, UniProt P51451); test: Inhibition of BLK (unknown origin)
[32] = biological target: Tyrosine-protein kinase Fyn (Homo sapiens, UniProt P06241); test: Inhibition of human recombinant FYN using biotinyl-beta amyloid beta amyloid beta AYQAEENTYDEYEN as substrate measured after 60 mins in the presence of ATP by HTRF assay
[33] = biological target: Tyrosine-protein kinase Lyn (Homo sapiens, UniProt P07948); test: Inhibition of human recombinant LYN using biotinyl-beta amyloid beta amyloid beta AKVEKIGEGTYGVVYK as substrate measured after 120 mins in the presence of ATP by HTRF assay
[34] = biological target: T1, Tyrosine-protein kinase BTK; test: Inhibition of BTK in human Ramos cells assessed as reduction in PLCgamma-2 phosphorylation at Try1217 residue at 1000 nM after1 hr by Western blot analysis; type: cell-based

T1 sequence (Q06187 whole entry): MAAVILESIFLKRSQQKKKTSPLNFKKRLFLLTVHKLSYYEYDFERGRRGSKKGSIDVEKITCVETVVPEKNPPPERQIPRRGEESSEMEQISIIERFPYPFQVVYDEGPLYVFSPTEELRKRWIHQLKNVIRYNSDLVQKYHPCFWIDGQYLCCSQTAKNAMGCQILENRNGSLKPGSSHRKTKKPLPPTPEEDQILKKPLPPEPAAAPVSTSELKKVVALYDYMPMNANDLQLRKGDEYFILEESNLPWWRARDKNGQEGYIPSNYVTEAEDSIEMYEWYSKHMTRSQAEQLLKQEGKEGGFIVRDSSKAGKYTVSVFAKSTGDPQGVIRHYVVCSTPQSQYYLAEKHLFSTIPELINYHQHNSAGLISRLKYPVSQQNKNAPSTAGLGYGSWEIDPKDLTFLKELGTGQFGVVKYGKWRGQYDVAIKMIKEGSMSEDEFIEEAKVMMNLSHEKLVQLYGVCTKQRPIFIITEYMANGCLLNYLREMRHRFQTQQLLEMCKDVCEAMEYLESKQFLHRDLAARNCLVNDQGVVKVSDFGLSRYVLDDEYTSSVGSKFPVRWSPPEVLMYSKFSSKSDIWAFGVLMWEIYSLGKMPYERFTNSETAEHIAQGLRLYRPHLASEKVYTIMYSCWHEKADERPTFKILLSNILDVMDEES
Tyrosine-protein kinase Tec, sequence (P42680 whole entry): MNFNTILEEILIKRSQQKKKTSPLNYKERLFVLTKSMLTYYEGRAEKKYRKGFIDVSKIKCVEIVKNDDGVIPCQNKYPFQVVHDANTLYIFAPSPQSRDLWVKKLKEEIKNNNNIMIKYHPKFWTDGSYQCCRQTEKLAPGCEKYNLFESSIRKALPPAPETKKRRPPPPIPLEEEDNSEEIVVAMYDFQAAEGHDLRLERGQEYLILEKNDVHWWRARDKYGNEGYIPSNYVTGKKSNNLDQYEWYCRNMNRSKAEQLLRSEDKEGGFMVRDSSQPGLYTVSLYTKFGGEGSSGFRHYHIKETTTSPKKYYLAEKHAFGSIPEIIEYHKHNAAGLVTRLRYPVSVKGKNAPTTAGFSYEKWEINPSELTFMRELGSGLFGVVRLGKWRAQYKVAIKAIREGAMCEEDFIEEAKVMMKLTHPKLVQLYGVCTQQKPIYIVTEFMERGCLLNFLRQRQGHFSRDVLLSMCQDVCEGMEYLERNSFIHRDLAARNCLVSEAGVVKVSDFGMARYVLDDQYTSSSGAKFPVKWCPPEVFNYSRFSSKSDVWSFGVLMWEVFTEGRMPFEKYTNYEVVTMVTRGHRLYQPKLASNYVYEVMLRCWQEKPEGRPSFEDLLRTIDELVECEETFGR
Tyrosine-protein kinase HCK, sequence (P08631 whole entry): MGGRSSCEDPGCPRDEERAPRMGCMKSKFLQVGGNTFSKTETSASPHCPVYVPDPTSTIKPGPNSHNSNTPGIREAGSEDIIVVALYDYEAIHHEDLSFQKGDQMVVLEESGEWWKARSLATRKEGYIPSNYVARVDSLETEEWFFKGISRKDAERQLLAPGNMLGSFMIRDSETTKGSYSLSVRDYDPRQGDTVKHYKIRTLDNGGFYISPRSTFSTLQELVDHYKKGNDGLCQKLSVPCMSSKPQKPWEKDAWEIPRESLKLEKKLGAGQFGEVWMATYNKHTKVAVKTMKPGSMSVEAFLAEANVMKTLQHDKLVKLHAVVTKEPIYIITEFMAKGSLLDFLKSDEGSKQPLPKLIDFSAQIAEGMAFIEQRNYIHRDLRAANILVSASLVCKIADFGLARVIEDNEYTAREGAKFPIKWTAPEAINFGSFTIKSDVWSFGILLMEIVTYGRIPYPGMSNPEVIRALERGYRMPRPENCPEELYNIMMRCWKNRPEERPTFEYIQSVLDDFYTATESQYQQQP
Tyrosine-protein kinase Blk, sequence (P51451 whole entry): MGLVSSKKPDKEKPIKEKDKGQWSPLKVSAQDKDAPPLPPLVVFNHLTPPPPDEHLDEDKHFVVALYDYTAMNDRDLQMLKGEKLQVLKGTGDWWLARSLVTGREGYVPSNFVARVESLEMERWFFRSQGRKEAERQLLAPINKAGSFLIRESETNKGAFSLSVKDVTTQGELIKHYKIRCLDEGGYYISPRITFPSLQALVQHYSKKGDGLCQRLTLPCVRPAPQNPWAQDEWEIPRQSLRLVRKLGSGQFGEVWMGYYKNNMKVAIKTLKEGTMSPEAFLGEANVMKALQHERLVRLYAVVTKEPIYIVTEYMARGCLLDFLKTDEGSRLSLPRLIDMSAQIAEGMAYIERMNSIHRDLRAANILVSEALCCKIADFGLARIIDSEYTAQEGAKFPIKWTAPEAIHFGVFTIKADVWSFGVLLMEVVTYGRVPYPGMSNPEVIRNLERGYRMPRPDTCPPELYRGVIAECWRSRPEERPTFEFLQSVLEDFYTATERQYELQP
Proto-oncogene tyrosine-protein kinase Src, sequence (P12931 2-536 limits assumed): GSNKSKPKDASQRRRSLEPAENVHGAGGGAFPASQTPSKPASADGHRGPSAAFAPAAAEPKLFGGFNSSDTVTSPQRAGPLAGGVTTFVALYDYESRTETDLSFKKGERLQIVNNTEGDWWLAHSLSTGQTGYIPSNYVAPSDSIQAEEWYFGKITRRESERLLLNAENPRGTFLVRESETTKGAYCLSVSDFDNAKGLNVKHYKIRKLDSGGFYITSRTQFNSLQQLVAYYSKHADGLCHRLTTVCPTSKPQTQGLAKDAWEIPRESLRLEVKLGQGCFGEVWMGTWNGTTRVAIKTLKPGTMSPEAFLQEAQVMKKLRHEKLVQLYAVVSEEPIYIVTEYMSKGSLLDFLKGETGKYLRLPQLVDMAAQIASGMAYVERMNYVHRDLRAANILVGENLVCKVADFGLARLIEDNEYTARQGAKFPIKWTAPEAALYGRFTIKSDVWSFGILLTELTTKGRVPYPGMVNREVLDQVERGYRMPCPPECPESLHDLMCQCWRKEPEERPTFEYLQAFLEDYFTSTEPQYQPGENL
Cytoplasmic tyrosine-protein kinase BMX, sequence (P51813 whole entry): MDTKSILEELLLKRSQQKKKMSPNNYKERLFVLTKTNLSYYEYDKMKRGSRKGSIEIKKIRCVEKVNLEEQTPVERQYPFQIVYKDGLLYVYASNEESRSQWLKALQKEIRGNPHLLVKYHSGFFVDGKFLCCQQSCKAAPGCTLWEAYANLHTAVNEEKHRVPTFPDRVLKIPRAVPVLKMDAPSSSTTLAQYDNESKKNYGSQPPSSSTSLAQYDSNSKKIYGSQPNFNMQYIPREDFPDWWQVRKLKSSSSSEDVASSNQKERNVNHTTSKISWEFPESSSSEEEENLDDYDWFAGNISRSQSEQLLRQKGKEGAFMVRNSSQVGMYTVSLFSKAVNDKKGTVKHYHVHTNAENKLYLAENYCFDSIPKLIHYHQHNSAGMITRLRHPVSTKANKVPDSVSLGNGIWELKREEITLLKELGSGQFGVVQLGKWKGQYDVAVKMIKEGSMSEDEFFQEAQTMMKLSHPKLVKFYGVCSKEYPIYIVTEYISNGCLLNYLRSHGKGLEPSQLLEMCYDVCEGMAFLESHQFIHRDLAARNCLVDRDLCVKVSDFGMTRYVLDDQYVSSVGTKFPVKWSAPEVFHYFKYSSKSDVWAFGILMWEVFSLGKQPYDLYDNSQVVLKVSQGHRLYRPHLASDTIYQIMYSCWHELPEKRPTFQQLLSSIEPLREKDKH
Tyrosine-protein kinase JAK3, sequence (P52333 whole entry): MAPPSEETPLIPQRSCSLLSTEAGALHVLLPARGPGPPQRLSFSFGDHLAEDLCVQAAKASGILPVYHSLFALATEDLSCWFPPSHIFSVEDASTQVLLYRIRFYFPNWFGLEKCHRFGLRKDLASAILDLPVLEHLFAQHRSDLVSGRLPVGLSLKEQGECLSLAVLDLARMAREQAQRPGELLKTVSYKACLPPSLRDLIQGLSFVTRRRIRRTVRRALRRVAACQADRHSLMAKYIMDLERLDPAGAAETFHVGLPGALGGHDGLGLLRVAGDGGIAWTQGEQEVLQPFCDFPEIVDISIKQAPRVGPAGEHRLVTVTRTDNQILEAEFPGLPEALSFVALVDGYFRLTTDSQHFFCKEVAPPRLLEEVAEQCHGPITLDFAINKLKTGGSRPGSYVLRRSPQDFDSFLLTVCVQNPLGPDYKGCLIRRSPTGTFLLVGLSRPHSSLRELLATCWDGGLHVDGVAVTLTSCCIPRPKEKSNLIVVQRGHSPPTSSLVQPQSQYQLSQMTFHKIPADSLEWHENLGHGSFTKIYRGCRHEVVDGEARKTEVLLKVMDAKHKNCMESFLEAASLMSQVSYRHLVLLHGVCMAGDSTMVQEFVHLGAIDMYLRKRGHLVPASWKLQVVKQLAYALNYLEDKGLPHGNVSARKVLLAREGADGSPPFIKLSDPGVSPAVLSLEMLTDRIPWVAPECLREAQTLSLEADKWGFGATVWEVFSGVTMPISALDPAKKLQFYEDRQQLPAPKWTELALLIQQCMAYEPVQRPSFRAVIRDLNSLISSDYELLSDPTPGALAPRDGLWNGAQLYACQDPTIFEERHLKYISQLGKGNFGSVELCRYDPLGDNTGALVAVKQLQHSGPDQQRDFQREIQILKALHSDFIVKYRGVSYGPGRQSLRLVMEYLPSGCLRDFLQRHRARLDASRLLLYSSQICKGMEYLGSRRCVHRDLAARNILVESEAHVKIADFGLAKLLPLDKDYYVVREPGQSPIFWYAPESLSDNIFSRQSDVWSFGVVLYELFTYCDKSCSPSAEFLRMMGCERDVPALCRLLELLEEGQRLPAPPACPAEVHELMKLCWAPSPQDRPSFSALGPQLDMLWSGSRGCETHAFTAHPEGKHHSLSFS

inhibition [1]: 94.5% | pIC50 (Ramos): 4.75 | pIC50 [2]: 8.05 | pIC50 (Daudi): 5.05 | inhibition [3]: 81.6%
Structure (SMILES): Nc1ncnc2c1c(-c1ccc3c(c1)OCO3)cn2C[C@H]1CCCN1C[C@@H]1CO1
pIC50 (JeKo-1): 5.32

inhibition [1]: 96.6% | pIC50 [2]: 7.34 | inhibition [3]: 70.1%
Structure (SMILES): Nc1ncnc2c1c(-c1ccc3c(c1)OCO3)cn2[C@H]1CCN(CC2CO2)C1 (stereo not given in full)

inhibition [1]: 36.1% | pIC50 (Ramos): 4.69 | pIC50 [2]: < 6.30 | pIC50 (Daudi): 4.35 | inhibition [3]: 13.9%
Structure (SMILES): CC1(CN2CC[C@H](n3cc(-c4ccc5c(c4)OCO5)c4c(N)ncnc43)C2)COC1
pIC50 (JeKo-1): 4.72

inhibition [1]: 93.5% | pIC50 (Ramos): 4.90 | pIC50 [2]: 7.44 | pIC50 (Daudi): 5.62 | inhibition [3]: 87.6%
Structure (SMILES): Nc1ncnc2c1c(-c1ccc3c(c1)OCO3)cn2[C@H]1CCN(C[C@@H]2CO2)C1
pIC50 (JeKo-1): 5.47

inhibition [1]: 98.1% | pIC50 (Ramos): 5.17 | pIC50 [2]: 7.51 | pIC50 (Daudi): 5.26 | inhibition [3]: 79.1%
Structure (SMILES): Nc1ncnc2c1c(-c1ccc(Oc3ccccc3)cc1)cn2[C@H]1CCN(C[C@@H]2CO2)C1
pIC50 (JeKo-1): 5.83

pIC50 [4]: 7.48 | pIC50 [5]: 6.41 | pIC50 [6]: 7.36 | pIC50 [7]: 7.55 | inhibition [8]: Active | inhibition [1]: 99.8% | pIC50 (Ramos): 5.07 | pIC50 [12]: 7.07 | inhibition [13]: Active | pIC50 [2]: 8.52 | pIC50 [15]: < 6.00 | inhibition [16]: Active | pIC50 [18]: < 6.00 | pIC50 [19]: 6.45 | pIC50 [22]: < 6.00 | pIC50 (Daudi): 5.15 | pIC50 [24]: < 6.00 | pIC50 [25]: 6.91 | pIC50 [26]: 7.08 | inhibition [27]: Active | inhibition [3]: 96.6% | inhibition [29]: Active | pIC50 [30]: 7.51 | pIC50 [31]: 8.00 | pIC50 [32]: 6.63 | pIC50 [33]: 8.00 | inhibition [34]: Active
Structure (SMILES): Nc1ncnc2c1c(-c1ccc(Oc3ccccc3)cc1)cn2C[C@H]1CCCN1C[C@@H]1CO1
Activity (Mus musculus [9]): Dose-dependent effect | Activity (Mus musculus [10]): Active | Activity (Mus musculus [11]): Dose-dependent effect | Activity [14]: Non-Toxic | Activity (Mus musculus [17]): Active | Activity (Mus musculus [20]): Dose-dependent effect | Activity (Mus musculus [21]): Active | Activity (Mus musculus [23]): Active | pIC50 (JeKo-1): 4.95 | Activity (Mus musculus [28]): Active

inhibition [1]: 90.1% | pIC50 (Ramos): < 4.30 | pIC50 [2]: 7.05 | pIC50 (Daudi): 4.80 | inhibition [3]: 52%
Structure (SMILES): Nc1ncnc2c1c(-c1ccc(Oc3ccccc3)cc1)cn2[C@H]1CCN(C[C@H]2CO2)C1
fold change (FC) (Ramos): 3 - 10 | fold change (FC) (JeKo-1): 3 - 10 | pIC50 (JeKo-1): 5.29 | fold change (FC) (Daudi): 3 - 10

inhibition [1]: 86.3% | pIC50 (Ramos): 4.88 | pIC50 [2]: 6.91 | pIC50 (Daudi): 4.80 | inhibition [3]: 48.3%
Structure (SMILES): Nc1ncnc2c1c(-c1ccc3c(c1)OCO3)cn2C[C@@H]1CCN(C[C@@H]2CO2)C1
pIC50 (JeKo-1): 4.99

inhibition [1]: 52% | pIC50 (Ramos): < 4.30 | pIC50 [2]: < 6.30 | pIC50 (Daudi): < 4.30 | inhibition [3]: 19.7%
Structure (SMILES): Nc1ncnc2c1c(-c1ccc3c(c1)OCO3)cn2[C@H]1CCN(C2COC2)C1
pIC50 (JeKo-1): < 4.30
